Values quoted from earlier work in PMC9014845 (Clinical cancer research : an official journal of the …, 2019).

How the values were obtained:
[1] = tested on: patients with FGFR alterations; settings: cited from earlier work
[2] = tested on: patients with FGFR alterations; settings: 23 patients with FGFR alterations; cited from earlier work

Structure (SMILES) | Overall DCR [1] [%] | Patients with stable disease for >3 months [2] [patients]
CCN1CCN(c2ccc(Nc3cc(N(C)C(=O)Nc4c(Cl)c(OC)cc(OC)c4Cl)ncn3)cc2)CC1 [BGJ398] | 37 | –
COc1cc(OC)cc(N(CCNC(C)C)c2ccc3ncc(-c4cnn(C)c4)nc3c2)c1 [JNJ-42756493] | – | 8
